Measured values as given in ChEMBL document CHEMBL1201862, “PubChem BioAssay data set” (2004).
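Each compound was tested at five concentrations against cells in 96-well plates for 48 hours. Here, GI50 denotes the concentration required for 50% inhibition of growth.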 The source made the active and inactive calls. Rule as the data show it: active = GI50 up to about 1.1 µM and inactive = higher.

How the values were obtained:
Experiment in all cases: inhibition of tumour cell growth, NCI panel, 48 h
786-0 = tested on: 786-0
A549 = tested on: A549
ACHN = tested on: ACHN
CAKI-1 = tested on: CAKI-1
CCRF-CEM = tested on: CCRF-CEM
COLO 205 = tested on: COLO 205
DLD-1 = tested on: DLD-1
DMS-114 = tested on: DMS-114
EKVX = tested on: EKVX
HCC 2998 = tested on: HCC 2998
HCT-116 = tested on: HCT-116
HCT-15 = tested on: HCT-15
HL-60 = tested on: HL-60
HOP-62 = tested on: HOP-62
HT-29 = tested on: HT-29
IGROV-1 = tested on: IGROV-1
K562 = tested on: K562
KM-20L2 = tested on: KM-20L2
KM12 = tested on: KM12
LOX IMVI = tested on: LOX IMVI
LXFL 529 = tested on: LXFL 529
M14 = tested on: M14
M19-MEL = tested on: M19-MEL
MOLT-4 = tested on: MOLT-4
Malme-3M = tested on: Malme-3M
NCI-H226 = tested on: NCI-H226
NCI-H23 = tested on: NCI-H23
NCI-H460 = tested on: NCI-H460
OVCAR-3 = tested on: OVCAR-3
OVCAR-4 = tested on: OVCAR-4
OVCAR-5 = tested on: OVCAR-5
OVCAR-8 = tested on: OVCAR-8
RPMI-8226 = tested on: RPMI-8226
RXF 393 = tested on: RXF 393
RXF 631 = tested on: RXF 631
SF-268 = tested on: SF-268
SF-295 = tested on: SF-295
SF-539 = tested on: SF-539
SK-MEL-28 = tested on: SK-MEL-28
SK-MEL-2 = tested on: SK-MEL-2
SK-MEL-5 = tested on: SK-MEL-5
SK-OV-3 = tested on: SK-OV-3
SN12C = tested on: SN12C
SNB-19 = tested on: SNB-19
SNB-75 = tested on: SNB-75
SNB-78 = tested on: SNB-78
SR = tested on: SR
SW-620 = tested on: SW-620
TK-10 = tested on: TK-10
U-251 = tested on: U-251
UACC-257 = tested on: UACC-257
UACC-62 = tested on: UACC-62
UO-31 = tested on: UO-31
XF498 = tested on: XF498
DMS-273 = tested on: DMS-273
HOP-92 = tested on: HOP-92
A498 = tested on: A498

COc1cc(C(C)c2cc3c(cc2OCCCCOc2cc4c(cc2C(C)c2cc(OC)c(OC)c(OC)c2)OCO4)OCO3)cc(OC)c1OC (stereo not drawn)
GI50 (786-0): 49.2 µM (inactive)
GI50 (A549): 48.4 µM (inactive)
GI50 (ACHN): 69.5 µM (inactive)
GI50 (CAKI-1): > 100 µM (inactive)
GI50 (CCRF-CEM): 48.3 µM (inactive)
GI50 (COLO 205): > 100 µM (inactive)
GI50 (DLD-1): 35.6 µM (inactive)
GI50 (DMS-114): 15.9 µM (inactive)
GI50 (EKVX): 40.5 µM (inactive)
GI50 (HCC 2998): 29.5 µM (inactive)
GI50 (HCT-116): 31.7 µM (inactive)
GI50 (HCT-15): 34.8 µM
GI50 (HL-60): 37.8 µM (inactive)
GI50 (HOP-62): 37.4 µM (inactive)
GI50 (HT-29): 68.9 µM (inactive)
GI50 (IGROV-1): 49.9 µM (inactive)
GI50 (K562): 28.2 µM (inactive)
GI50 (KM-20L2): > 100 µM (inactive)
GI50 (KM12): 33 µM (inactive)
GI50 (LOX IMVI): > 100 µM (inactive)
GI50 (LXFL 529): 33.3 µM (inactive)
GI50 (M14): 24.5 µM (inactive)
GI50 (M19-MEL): 38.4 µM (inactive)
GI50 (MOLT-4): 41.4 µM (inactive)
GI50 (Malme-3M): 35.6 µM (inactive)
GI50 (NCI-H226): 31.5 µM (inactive)
GI50 (NCI-H23): 40.4 µM (inactive)
GI50 (NCI-H460): 45.3 µM (inactive)
GI50 (OVCAR-3): 21.7 µM (inactive)
GI50 (OVCAR-4): 92.3 µM (inactive)
GI50 (OVCAR-5): > 100 µM (inactive)
GI50 (OVCAR-8): 34.8 µM (inactive)
GI50 (RPMI-8226): 25.5 µM (inactive)
GI50 (RXF 393): 17.6 µM (inactive)
GI50 (RXF 631): 39.7 µM (inactive)
GI50 (SF-268): 51.5 µM (inactive)
GI50 (SF-295): 26.5 µM (inactive)
GI50 (SF-539): 23.7 µM (inactive)
GI50 (SK-MEL-28): 71 µM (inactive)
GI50 (SK-MEL-2): 42.3 µM (inactive)
GI50 (SK-MEL-5): 29.1 µM (inactive)
GI50 (SK-OV-3): 34.4 µM (inactive)
GI50 (SN12C): 29.6 µM (inactive)
GI50 (SNB-19): > 100 µM (inactive)
GI50 (SNB-75): 24.8 µM (inactive)
GI50 (SNB-78): 20.1 µM (inactive)
GI50 (SR): 10.2 µM (inactive)
GI50 (SW-620): 26.9 µM (inactive)
GI50 (TK-10): > 100 µM (inactive)
GI50 (U-251): 29.7 µM (inactive)
GI50 (UACC-257): 84.7 µM (inactive)
GI50 (UACC-62): 21.1 µM (inactive)
GI50 (UO-31): 46.3 µM (inactive)
GI50 (XF498): 27.6 µM (inactive)

COC(=O)/C=C1\CCC(C)O1 (stereo not drawn)
GI50 (786-0): > 100 µM (inactive)
GI50 (A549): > 100 µM (inactive)
GI50 (ACHN): > 100 µM (inactive)
GI50 (CAKI-1): > 100 µM (inactive)
GI50 (CCRF-CEM): > 100 µM (inactive)
GI50 (COLO 205): > 100 µM (inactive)
GI50 (DLD-1): > 100 µM (inactive)
GI50 (DMS-114): > 100 µM (inactive)
GI50 (DMS-273): > 100 µM (inactive)
GI50 (EKVX): > 100 µM (inactive)
GI50 (HCC 2998): > 100 µM (inactive)
GI50 (HCT-116): > 100 µM (inactive)
GI50 (HCT-15): > 100 µM
GI50 (HL-60): > 100 µM (inactive)
GI50 (HOP-62): > 100 µM (inactive)
GI50 (HOP-92): 24 µM (inactive)
GI50 (HT-29): > 100 µM (inactive)
GI50 (IGROV-1): > 100 µM (inactive)
GI50 (K562): > 100 µM (inactive)
GI50 (KM-20L2): > 100 µM (inactive)
GI50 (KM12): > 100 µM (inactive)
GI50 (LOX IMVI): > 100 µM (inactive)
GI50 (LXFL 529): > 100 µM (inactive)
GI50 (M14): > 100 µM (inactive)
GI50 (M19-MEL): > 100 µM (inactive)
GI50 (MOLT-4): > 100 µM (inactive)
GI50 (Malme-3M): > 100 µM (inactive)
GI50 (NCI-H23): > 100 µM (inactive)
GI50 (NCI-H460): > 100 µM (inactive)
GI50 (OVCAR-3): > 100 µM (inactive)
GI50 (OVCAR-4): > 100 µM (inactive)
GI50 (OVCAR-5): > 100 µM (inactive)
GI50 (OVCAR-8): > 100 µM (inactive)
GI50 (RPMI-8226): > 100 µM (inactive)
GI50 (RXF 393): > 100 µM (inactive)
GI50 (RXF 631): > 100 µM (inactive)
GI50 (SF-268): > 100 µM (inactive)
GI50 (SF-295): > 100 µM (inactive)
GI50 (SF-539): > 100 µM (inactive)
GI50 (SK-MEL-2): > 100 µM (inactive)
GI50 (SK-MEL-5): > 100 µM (inactive)
GI50 (SK-OV-3): > 100 µM (inactive)
GI50 (SN12C): > 100 µM (inactive)
GI50 (SNB-19): > 100 µM (inactive)
GI50 (SNB-75): 39.5 µM (inactive)
GI50 (SNB-78): > 100 µM (inactive)
GI50 (SW-620): > 100 µM (inactive)
GI50 (TK-10): > 100 µM (inactive)
GI50 (U-251): > 100 µM (inactive)
GI50 (UACC-257): > 100 µM (inactive)
GI50 (UACC-62): > 100 µM (inactive)
GI50 (UO-31): > 100 µM (inactive)
GI50 (XF498): > 100 µM (inactive)

Oc1cc(-c2c[nH]c3ccccc23)nc2cc3c(cc12)OCO3
GI50 (786-0): > 100 µM (inactive)
GI50 (A498): > 100 µM (inactive)
GI50 (A549): > 100 µM (inactive)
GI50 (ACHN): > 100 µM (inactive)
GI50 (CCRF-CEM): > 100 µM (inactive)
GI50 (COLO 205): > 100 µM (inactive)
GI50 (DLD-1): > 100 µM (inactive)
GI50 (DMS-114): > 100 µM (inactive)
GI50 (DMS-273): > 100 µM (inactive)
GI50 (EKVX): > 100 µM (inactive)
GI50 (HCC 2998): > 100 µM (inactive)
GI50 (HCT-116): > 100 µM (inactive)
GI50 (HCT-15): > 100 µM
GI50 (HL-60): > 100 µM (inactive)
GI50 (HOP-62): 84.3 µM (inactive)
GI50 (HT-29): > 100 µM (inactive)
GI50 (IGROV-1): 83.2 µM (inactive)
GI50 (K562): > 100 µM (inactive)
GI50 (KM-20L2): > 100 µM (inactive)
GI50 (LOX IMVI): > 100 µM (inactive)
GI50 (LXFL 529): > 100 µM (inactive)
GI50 (M14): > 100 µM (inactive)
GI50 (M19-MEL): > 100 µM (inactive)
GI50 (MOLT-4): > 100 µM (inactive)
GI50 (Malme-3M): 23.6 µM (inactive)
GI50 (NCI-H226): > 100 µM (inactive)
GI50 (NCI-H23): > 100 µM (inactive)
GI50 (NCI-H460): > 100 µM (inactive)
GI50 (OVCAR-3): 8.61 µM (inactive)
GI50 (OVCAR-4): 3.79 µM (inactive)
GI50 (OVCAR-8): > 10 µM (inactive)
GI50 (RPMI-8226): > 100 µM (inactive)
GI50 (RXF 393): > 100 µM (inactive)
GI50 (RXF 631): > 100 µM (inactive)
GI50 (SF-268): > 100 µM (inactive)
GI50 (SF-295): 92.3 µM (inactive)
GI50 (SF-539): > 100 µM (inactive)
GI50 (SK-MEL-28): > 100 µM (inactive)
GI50 (SK-MEL-2): > 100 µM (inactive)
GI50 (SK-MEL-5): > 100 µM (inactive)
GI50 (SN12C): > 100 µM (inactive)
GI50 (SNB-19): > 100 µM (inactive)
GI50 (SNB-75): 21.6 µM (inactive)
GI50 (SR): > 100 µM (inactive)
GI50 (SW-620): > 100 µM (inactive)
GI50 (TK-10): > 100 µM (inactive)
GI50 (U-251): > 100 µM (inactive)
GI50 (UACC-257): > 100 µM (inactive)
GI50 (UACC-62): 66.8 µM (inactive)
GI50 (UO-31): > 100 µM (inactive)
GI50 (XF498): 41.6 µM (inactive)
